# Measured values: patent US8242160B2, “Inhibitors of ubiquitin E1” (The United States of America, as represented by the …, priority 2005, dated 2012)
# How the values were obtained:
# Type in all cases: cell-based
# [1] = tested on: IκBα; assay: TNFα-induced IκBα degradation in cells
# [2] = tested on: p53; assay: p53-driven luciferase reporter assay
# Excerpt: FIG. 5B depicts the results of reporter assays showing that the p53 induced by 4-[4-(5-nitro-furan-2-ylmethylene)-3,5-dioxo-pyrazolidin-1-yl]-benzoic acid methyl acid is transcriptionally active.
# [3] = tested on: untransformed retinal pigment epithelial cells; assay: Growth of untransformed RPE cells, MTT assay
# Excerpt: FIG. 6A depicts the induction of growth arrest in untransformed RPE cells by 4-[4-(5-nitro-furan-2-ylmethylene)-3,5-dioxo-pyrazolidin-1-yl]-benzoic acid methyl […], as measured by MTT assay.
# (§1) While p53 induces apoptotic cell death in many tumor cells, it generally only induces growth arrest in untransformed cells. This has been the rationale for many studies targeting the p53 system.
# [4] = tested on: J588 mouse myeloma cells; assay: Killing of myeloma cells
# Excerpt: FIG. 6B depicts the dose-depending killing of J588 mouse myeloma cells by proteasome and E1 inhibitor by 4-[4-(5-nitro-furan-2-ylmethylene)-3,5-dioxo-pyrazolidin-1-yl]-benzoic acid methyl acid.
# as §1
# [5] = target: T1, E1 (Homo sapiens, UniProt P22314); assay: Loading of E1 with ubiquitin in cells, anti-E1 immunoblot; settings: 50 μM, 1 hour
# T1 construct: endogenous in cells; host or cells: RPE cells
# T1 sequence (P22314 1-1058): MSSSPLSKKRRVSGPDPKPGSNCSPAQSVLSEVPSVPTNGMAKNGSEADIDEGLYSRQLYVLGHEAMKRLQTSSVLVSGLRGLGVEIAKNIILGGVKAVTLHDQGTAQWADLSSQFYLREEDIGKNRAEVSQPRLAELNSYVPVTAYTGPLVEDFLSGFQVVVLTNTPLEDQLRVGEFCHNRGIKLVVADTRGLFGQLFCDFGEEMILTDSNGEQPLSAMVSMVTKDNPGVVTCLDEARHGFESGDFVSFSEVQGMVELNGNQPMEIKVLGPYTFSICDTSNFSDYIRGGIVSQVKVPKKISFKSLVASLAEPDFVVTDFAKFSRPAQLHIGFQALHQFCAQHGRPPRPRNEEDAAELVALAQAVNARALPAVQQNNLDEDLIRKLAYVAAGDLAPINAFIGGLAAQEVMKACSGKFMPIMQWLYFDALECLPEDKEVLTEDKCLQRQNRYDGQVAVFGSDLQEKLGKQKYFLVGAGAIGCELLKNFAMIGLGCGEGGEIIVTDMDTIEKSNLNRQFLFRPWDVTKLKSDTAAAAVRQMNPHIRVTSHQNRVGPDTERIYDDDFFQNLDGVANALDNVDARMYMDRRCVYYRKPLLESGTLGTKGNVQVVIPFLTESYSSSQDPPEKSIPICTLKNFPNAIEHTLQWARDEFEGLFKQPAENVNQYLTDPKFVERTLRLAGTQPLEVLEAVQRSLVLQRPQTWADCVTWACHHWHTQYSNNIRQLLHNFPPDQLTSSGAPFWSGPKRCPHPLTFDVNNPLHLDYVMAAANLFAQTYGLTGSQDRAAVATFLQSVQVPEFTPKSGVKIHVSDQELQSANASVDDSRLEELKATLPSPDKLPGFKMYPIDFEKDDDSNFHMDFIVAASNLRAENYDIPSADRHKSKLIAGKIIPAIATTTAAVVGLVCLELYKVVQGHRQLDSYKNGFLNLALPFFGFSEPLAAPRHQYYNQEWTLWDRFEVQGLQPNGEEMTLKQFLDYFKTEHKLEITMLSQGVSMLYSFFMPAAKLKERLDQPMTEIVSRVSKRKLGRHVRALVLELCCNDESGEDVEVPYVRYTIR
# Experimental: RPE cells were treated with the E1 inhibitor of 4-[4-(5-nitro-furan-2-ylmethylene)-3,5-dioxo-pyrazolidin-1-yl]-benzoic acid methyl acid (designated as EI-41, 50 μM), HLI98C (50 μM) or iodoacetamide […] for 1 hour followed by lysis, SDS-PAGE under either non-reducing (FIG. 7A) or reducing (FIG. 7B) conditions and immunoblotting with anti-E1. Results are shown in FIGS. 7A and 7B, where the EI-41 compound is shown to inhibit the loading of EI with ubiquitin.
# [6] = tested on: U2O cells; assay: Proteasome inhibitor-induced accumulation of ubiquitylated proteins; settings: 50 μM with ALLN 50 μM, four hours
smiles,measurement,setting,value
"COC(=O)c1ccc(N2NC(=O)/C(=C/c3ccc([N+](=O)[O-])o3)C2=O)cc1 [E1-41, 4-[4-(5-nitro-furan-2-ylmethylene)-3,5-dioxo-pyrazolidin-1-yl]-benzoic acid methyl acid]",TNFα-induced IκBα degradation,[1],prevents TNFα-induced IκBα degradation
same,activation of p53-driven luciferase reporter,[2],activated a p53-driven luciferase reporter to a level comparable to adriamycin
same,effect on growth of untransformed retinal pigment epithelial cells,[3],causes growth arrest
same,killing of myeloma cells,[4],kills myeloma cells in a dose-dependent manner
same,E1-Ub thiol-ester formation in RPE cells,[5],inhibit E1-Ub thiol-ester formation
same,accumulation of ubiquitylated proteins in proteasome inhibitor-treated cells,[6],inhibit the accumulation of ubiquiylated proteins
